According to patent publication US10119168B2, “Methods for the treatment of kidney fibrosis” (priority 2014, dated 2018):

Test system: mouse kidney
Experiment: RNA-seq of kidney gene expression over time in FA nephropathy progression (Table 1)
Type: in vivo
From the text: Identification of Candidate Genes for Biomarkers of Kidney Fibrosis Through RNA-Seq. […] To select genes that are indicative of fibrosis candidates were considered from this later group that had robust upregulation (>5-fold with >100 read counts at peak) over time as fibrosis progresses. Another important criteria was the location of the protein product of the gene, either in extracellular matrix or transmembrane, to increase the chance of detecting it in the urine and use it as a biomarker(11).
(§1) RNA samples (n=3 mice/time point) were sequenced at the Bioplymers Facility at the Harvard Medical School. Libraries were prepared from 10 ng total RNA per sample using the IntegenX Apollo 324 system and NuGEN SPIA reagents. Libraries were multiplexed in groups of three per lane of a flowcell and 50 cycle, paired-end sequencing was performed on an Illumina HiSeq2000 instrument. Illumina sequence quality was surveyed with FastQC (available on the world wide web at bioinformatics.babraham.ac.uk/projects/fastqc/) to ensure suitability of library generation and sequencing for further analysis. Adapters and lower quality bases were trimmed with Cutadapt (available on the world wide web at code.google.com/p/cutadapt/), using a Phred quality cutoff of 20, and reassessed with FastQC. Trimmed reads were aligned to the Ensembl NCBIM37 Mus musculus genome build with TopHat2. Aligned reads were summarized at the gene level against the Illumina iGenomes (available on the world wide web at tophat.cbcb.umd.edu/igenomes.html) NCBIM37 Mus musculus gene annotations using HTSeq (available on the world wide web at huber.embl.de/users/anders/HTSeq/doc/overview.html). […] The full dataset is available in the NCBI GEO database with the accession number GSE65267. Raw data is accessible on the world wide web at ncbi.nlm.nih.gov/geo/query/acc.cgi?acc=GSE65267.
Mice were sacrificed at 1, 2, 3, 7 and 14 days following administration. […] All mice were sacrificed at 14 days.
as §1, with “The quantity and quality of mRNA” for “RNA samples (n=3 mice/time point)”, “assayed on an Agilent 2200 TapeStation instrument and by SYBR qPCR assay.” for “sequenced at the Bioplymers Facility at the Harvard Medical School.”, “(https://code.google.com/p/cutadapt/),” for “(available on the world wide web at code.google.com/p/cutadapt/),”

Nc1nc2ncc(CNc3ccc(C(=O)N[C@@H](CCC(=O)O)C(=O)O)cc3)nc2c(=O)[nH]1 [FA, folic acid]
Sycn mean fold change from normal (Day 3): 0.07 fold
Synpr mean fold change from normal (Day 3): 0.01 fold
Sytl2 mean fold change from normal (Day 3): 8.20 fold
Tagln2 mean fold change from normal (Day 3): 4.86 fold
Tbx10 mean fold change from normal (Day 3): 0.08 fold
Timd2 mean fold change from normal (Day 3): 1.47 fold
Timp1 mean fold change from normal (Day 3): 60.56 fold
Tlr2 mean fold change from normal (Day 3): 34.62 fold
Tmem25 mean fold change from normal (Day 3): 0.39 fold
Tmem26 mean fold change from normal (Day 3): 0.16 fold
Tmem207 mean fold change from normal (Day 3): 0.14 fold
Tmsb10 mean fold change from normal (Day 3): 9.84 fold
Tnc mean fold change from normal (Day 3): 9.00 fold
Tnfaip3 mean fold change from normal (Day 3): 6.38 fold
Tnfrsf23 mean fold change from normal (Day 3): 5.65 fold
Top2a mean fold change from normal (Day 3): 10.49 fold
Tpx2 mean fold change from normal (Day 3): 7.65 fold
Tril mean fold change from normal (Day 3): 0.69 fold
Tsc22d1 mean fold change from normal (Day 3): 4.34 fold
Ttc36 mean fold change from normal (Day 3): 0.34 fold
Ttr mean fold change from normal (Day 3): 0.15 fold
Tyrobp mean fold change from normal (Day 3): 4.90 fold
Ugt3a1 mean fold change from normal (Day 3): 0.17 fold
Uhrf1 mean fold change from normal (Day 3): 12.11 fold
Upp2 mean fold change from normal (Day 3): 0.21 fold
Vcam1 mean fold change from normal (Day 3): 121.91 fold
Vill mean fold change from normal (Day 3): 0.18 fold
Vmn1r18 mean fold change from normal (Day 3): 0.14 fold
Vmn1r19 mean fold change from normal (Day 3): 0.52 fold
Vmn1r20 mean fold change from normal (Day 3): 0.31 fold
Vmn1r-ps11 mean fold change from normal (Day 3): 0.73 fold
Vstm2a mean fold change from normal (Day 3): 0.04 fold
Vtcn1 mean fold change from normal (Day 3): 28.37 fold
Vwce mean fold change from normal (Day 3): 0.42 fold
Wfdc15b mean fold change from normal (Day 3): 0.06 fold
Ybx2 mean fold change from normal (Day 3): 0.18 fold
7SK RNA mean fold change from normal (Day 7): 0.08 fold
2310042D19Rik mean fold change from normal (Day 7): 0.46 fold
4930533I22Rik mean fold change from normal (Day 7): 0.25 fold
4933417A18Rik mean fold change from normal (Day 7): 0.41 fold
8430408G22Rik mean fold change from normal (Day 7): 1.23 fold
9030619P08Rik mean fold change from normal (Day 7): 0.03 fold
Slc2a5 mean fold change from normal (Day 7): 0.25 fold
Slc4a1 mean fold change from normal (Day 7): 0.35 fold
Slc5a4a mean fold change from normal (Day 7): 0.17 fold
Slc5a12 mean fold change from normal (Day 7): 0.35 fold
Slc6a12 mean fold change from normal (Day 7): 0.12 fold
Slc7a13 mean fold change from normal (Day 7): 0.10 fold
Slc28a1 mean fold change from normal (Day 7): 0.44 fold
Slc34a1 mean fold change from normal (Day 7): 0.30 fold
Slc34a2 mean fold change from normal (Day 7): 7.02 fold
Slc34a3 mean fold change from normal (Day 7): 0.20 fold
Slc46a3 mean fold change from normal (Day 7): 0.31 fold
Slco1a1 mean fold change from normal (Day 7): 0.12 fold
Smoc2 mean fold change from normal (Day 7): 4.22 fold
Smpdl3b mean fold change from normal (Day 7): 38.83 fold
Snx31 mean fold change from normal (Day 7): 0.07 fold
Socs1 mean fold change from normal (Day 7): 34.95 fold
Sox4 mean fold change from normal (Day 7): 11.09 fold
Sox9 mean fold change from normal (Day 7): 30.72 fold
Spaca7 mean fold change from normal (Day 7): 30.89 fold
Spink6 mean fold change from normal (Day 7): 5.47 fold
Spp1 mean fold change from normal (Day 7): 37.70 fold
Spred3 mean fold change from normal (Day 7): 3.82 fold
Spsb1 mean fold change from normal (Day 7): 8.93 fold
Spt1c3 mean fold change from normal (Day 7): 1.25 fold
St8sia2 mean fold change from normal (Day 7): 26.47 fold
Stil mean fold change from normal (Day 7): 3.57 fold
Stk32a mean fold change from normal (Day 7): 2.72 fold
Stra6 mean fold change from normal (Day 7): 22.31 fold
Susd2 mean fold change from normal (Day 7): 0.28 fold
Sycn mean fold change from normal (Day 7): 0.07 fold
Synpr mean fold change from normal (Day 7): 0.01 fold
Sytl2 mean fold change from normal (Day 7): 11.81 fold
Tagln2 mean fold change from normal (Day 7): 4.01 fold
Tbx10 mean fold change from normal (Day 7): 0.03 fold
Timd2 mean fold change from normal (Day 7): 0.68 fold
Timp1 mean fold change from normal (Day 7): 67.32 fold
Tlr2 mean fold change from normal (Day 7): 15.78 fold
Tmem25 mean fold change from normal (Day 7): 0.53 fold
Tmem26 mean fold change from normal (Day 7): 0.16 fold
Tmem207 mean fold change from normal (Day 7): 0.35 fold
Tmsb10 mean fold change from normal (Day 7): 9.28 fold
Tnc mean fold change from normal (Day 7): 16.74 fold
Tnfaip3 mean fold change from normal (Day 7): 8.79 fold
Tnfrsf23 mean fold change from normal (Day 7): 2.21 fold
Top2a mean fold change from normal (Day 7): 5.58 fold
Tpx2 mean fold change from normal (Day 7): 2.93 fold
Tril mean fold change from normal (Day 7): 2.07 fold
Tsc22d1 mean fold change from normal (Day 7): 2.18 fold
Ttc36 mean fold change from normal (Day 7): 0.34 fold
Ttr mean fold change from normal (Day 7): 0.56 fold
Tyrobp mean fold change from normal (Day 7): 16.29 fold
Ugt3a1 mean fold change from normal (Day 7): 0.22 fold
Uhrf1 mean fold change from normal (Day 7): 3.81 fold
Upp2 mean fold change from normal (Day 7): 0.69 fold
Vcam1 mean fold change from normal (Day 7): 63.51 fold
Vill mean fold change from normal (Day 7): 0.20 fold
Vmn1r18 mean fold change from normal (Day 7): 0.27 fold
Vmn1r19 mean fold change from normal (Day 7): 0.73 fold
Vmn1r20 mean fold change from normal (Day 7): 0.27 fold
Vmn1r-ps11 mean fold change from normal (Day 7): 0.11 fold
Vstm2a mean fold change from normal (Day 7): 0.20 fold
Vtcn1 mean fold change from normal (Day 7): 15.70 fold
Vwce mean fold change from normal (Day 7): 1.03 fold
Wfdc15b mean fold change from normal (Day 7): 0.27 fold
Ybx2 mean fold change from normal (Day 7): 0.72 fold
7SK RNA mean fold change from normal (Day 14): 1.35 fold
2310042D19Rik mean fold change from normal (Day 14): 0.95 fold
4930533I22Rik mean fold change from normal (Day 14): 0.74 fold
4933417A18Rik mean fold change from normal (Day 14): 0.67 fold
8430408G22Rik mean fold change from normal (Day 14): 0.79 fold
9030619P08Rik mean fold change from normal (Day 14): 0.25 fold
Slc2a5 mean fold change from normal (Day 14): 0.99 fold
Slc4a1 mean fold change from normal (Day 14): 0.92 fold
Slc5a4a mean fold change from normal (Day 14): 1.06 fold
Slc5a12 mean fold change from normal (Day 14): 0.58 fold
Slc6a12 mean fold change from normal (Day 14): 0.77 fold
Slc7a13 mean fold change from normal (Day 14): 0.48 fold
Slc28a1 mean fold change from normal (Day 14): 0.55 fold
Slc34a1 mean fold change from normal (Day 14): 0.58 fold
Slc34a2 mean fold change from normal (Day 14): 4.10 fold
Slc34a3 mean fold change from normal (Day 14): 0.33 fold
Slc46a3 mean fold change from normal (Day 14): 0.53 fold
Slco1a1 mean fold change from normal (Day 14): 0.36 fold
Smoc2 mean fold change from normal (Day 14): 6.08 fold
Smpdl3b mean fold change from normal (Day 14): 19.27 fold
Snx31 mean fold change from normal (Day 14): 0.27 fold
Socs1 mean fold change from normal (Day 14): 36.18 fold
Sox4 mean fold change from normal (Day 14): 7.60 fold
Sox9 mean fold change from normal (Day 14): 8.17 fold
Spaca7 mean fold change from normal (Day 14): 11.81 fold
Spink6 mean fold change from normal (Day 14): 1.77 fold
Spp1 mean fold change from normal (Day 14): 10.75 fold
Spred3 mean fold change from normal (Day 14): 5.60 fold
Spsb1 mean fold change from normal (Day 14): 4.14 fold
Spt1c3 mean fold change from normal (Day 14): 0.68 fold
St8sia2 mean fold change from normal (Day 14): 2.02 fold
Stil mean fold change from normal (Day 14): 0.95 fold
Stk32a mean fold change from normal (Day 14): 1.64 fold
Stra6 mean fold change from normal (Day 14): 14.59 fold
Susd2 mean fold change from normal (Day 14): 0.51 fold
Sycn mean fold change from normal (Day 14): 0.22 fold
Synpr mean fold change from normal (Day 14): 0.18 fold
Sytl2 mean fold change from normal (Day 14): 6.72 fold
Tagln2 mean fold change from normal (Day 14): 2.37 fold
Tbx10 mean fold change from normal (Day 14): 0.44 fold
Timd2 mean fold change from normal (Day 14): 0.67 fold
Timp1 mean fold change from normal (Day 14): 61.27 fold
Tlr2 mean fold change from normal (Day 14): 7.34 fold
Tmem25 mean fold change from normal (Day 14): 0.53 fold
Tmem26 mean fold change from normal (Day 14): 0.49 fold
Tmem207 mean fold change from normal (Day 14): 1.20 fold
Tmsb10 mean fold change from normal (Day 14): 5.31 fold
Tnc mean fold change from normal (Day 14): 18.78 fold
Tnfaip3 mean fold change from normal (Day 14): 3.95 fold
Tnfrsf23 mean fold change from normal (Day 14): 1.75 fold
Top2a mean fold change from normal (Day 14): 3.30 fold
Tpx2 mean fold change from normal (Day 14): 2.69 fold
Tril mean fold change from normal (Day 14): 0.97 fold
Tsc22d1 mean fold change from normal (Day 14): 2.00 fold
Ttc36 mean fold change from normal (Day 14): 0.67 fold
Ttr mean fold change from normal (Day 14): 0.78 fold
Tyrobp mean fold change from normal (Day 14): 10.29 fold
Ugt3a1 mean fold change from normal (Day 14): 0.46 fold
Uhrf1 mean fold change from normal (Day 14): 3.48 fold
Upp2 mean fold change from normal (Day 14): 1.34 fold
Vcam1 mean fold change from normal (Day 14): 36.46 fold
Vill mean fold change from normal (Day 14): 0.36 fold
Vmn1r18 mean fold change from normal (Day 14): 0.87 fold
Vmn1r19 mean fold change from normal (Day 14): 1.04 fold
Vmn1r20 mean fold change from normal (Day 14): 0.79 fold
Vmn1r-ps11 mean fold change from normal (Day 14): 0.51 fold
Vstm2a mean fold change from normal (Day 14): 0.60 fold
Vtcn1 mean fold change from normal (Day 14): 7.44 fold
Vwce mean fold change from normal (Day 14): 0.85 fold
Wfdc15b mean fold change from normal (Day 14): 0.90 fold
Ybx2 mean fold change from normal (Day 14): 0.44 fold
